Where a name gives a salt, the structure may show the parent alone.
Legend:
FU-EPS-1 = test system: FU-EPS-1
Procedure: (§1)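 60-agent targeted drug screens (Drug Screen V3 on epithelioid sarcoma cultures PCB490-3/4/5, PCB495, EPS cell lines ESX, VA-ES-BJ, FU-EPS-1 and SkMc myoblasts; PPTI screen v2.1 on human UPS PCB197 and canine UPS S1-12). 384-well plates, 72 h, CellTiter-Glo viability; IC50 by Hill curve fit. 10000 nM = no IC50 achieved (top reported value).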

PCB-495 = test system: PCB-495 (human epithelioid sarcoma primary culture)
Procedure: as §1

SkMc = test system: SkMc
Procedure: as §1

ESX = test system: ESX
Procedure: as §1

VA-ES-BJ = test system: VA-ES-BJ
Procedure: as §1

PCB-490-5 = test system: PCB-490-5 (human epithelioid sarcoma primary culture)
Procedure: as §1

PCB-490-4 = test system: PCB-490-4 (human epithelioid sarcoma primary culture)
Procedure: as §1

PCB-490-3 = test system: PCB-490-3 (human epithelioid sarcoma primary culture)
Procedure: as §1

pcb-00197 = test system: pcb-00197 (human undifferentiated pleomorphic sarcoma culture)
Procedure: as §1

s1-12 = test system: s1-12 (canine undifferentiated pleomorphic sarcoma culture)
Procedure: as §1

Compound | IC50 cell viability (FU-EPS-1) [µM] | IC50 cell viability (PCB-495) [µM] | IC50 cell viability (SkMc) [µM] | IC50 cell viability (ESX) [µM] | IC50 cell viability (VA-ES-BJ) [µM] | IC50 cell viability (PCB-490-5) [µM] | IC50 cell viability (PCB-490-4) [µM] | IC50 cell viability (PCB-490-3) [µM] | IC50 cell viability (U23674) [µM] | IC50 cell viability (pcb-00197) [µM] | IC50 cell viability (s1-12) [µM]
Cc1nc(Nc2ncc(C(=O)Nc3c(C)cccc3Cl)s2)cc(N2CCN(CCO)CC2)n1 [Dasatinib] | > 10 | > 10 | 0.05 | > 10 | > 10 | 0.39 | 0.17 | 1.27 | – | – | –
CN1CCc2c(c3ccccc3n2Cc2ccc(C(=O)NO)cc2)C1 [Tubastatin A] | > 10 | > 10 | > 10 | > 10 | > 10 | > 10 | > 10 | > 10 | – | – | –
CC(C)N(CCCNC(=O)Nc1ccc(C(C)(C)C)cc1)C[C@H]1O[C@@H](n2cc(Br)c3c(N)ncnc32)[C@H](O)[C@@H]1O [SGC0946] | 1.48 | 0.6 | 0.1 | 0.62 | 0.49 | > 10 | > 10 | > 10 | – | – | –
NC(=O)c1ccc(-c2nc(-c3ccccn3)c(-c3ccc4c(c3)OCO4)[nH]2)cc1 | – | – | – | – | – | – | – | – | > 10 | > 10 | > 10
Nc1nc2c(ncn2COC(CO)CO)c(=O)[nH]1 [Ganciclovir] | 0.02 | > 10 | > 10 | > 10 | > 10 | > 10 | > 10 | > 10 | – | – | –
N#CC[C@H](C1CCCC1)n1cc(-c2ncnc3[nH]ccc23)cn1 [Ruxolitinib] | > 10 | > 10 | > 10 | > 10 | > 10 | > 10 | > 10 | > 10 | – | – | –
CN(C(=O)c1ccc(F)cc1C(F)(F)F)C1CCN(c2nnc(-c3ccnn3C)c3ccccc23)CC1 | > 10 | > 10 | > 10 | > 10 | > 10 | > 10 | > 10 | > 10 | – | – | –
CC1(C)CCC(c2ccc(Cl)cc2)=C(CN2CCN(c3ccc(C(=O)NS(=O)(=O)c4ccc(N[C@H](CCN5CCOCC5)CSc5ccccc5)c(S(=O)(=O)C(F)(F)F)c4)cc3)CC2)C1 [ABT-263] | > 10 | > 10 | > 10 | > 10 | > 10 | > 10 | > 10 | > 10 | – | – | –
CCCc1c(OCCCOc2cc(O)c(-c3ccc(F)cc3)cc2CC)cccc1Oc1ccccc1C(=O)O | > 10 | > 10 | > 10 | > 10 | > 10 | > 10 | > 10 | > 10 | – | – | –
COc1cccc(OCCCN)c1-c1cc(Nc2cnc(C#N)cn2)n[nH]1 | > 10 | 3.17 | 1.29 | 0.23 | 0.69 | > 10 | > 10 | > 10 | – | – | –
O=C(O)CC[C@H](O)C(=O)O [L-a-Hydroxyglutaric acid] | > 10 | > 10 | > 10 | > 10 | > 10 | > 10 | > 10 | > 10 | – | – | –
Cn1cc(NC(=O)c2cc(NC(=O)CNC(=N)N)cn2C)cc1C(=O)NCCC(=N)N [Netropsin Dihydrochloride] | > 10 | 5.52 | > 10 | > 10 | > 10 | > 10 | > 10 | > 10 | – | – | –
CC[C@@H]1C(=O)N(C)c2cnc(Nc3ccc(C(=O)N[C@H]4CC[C@H](N5CCN(CC6CC6)CC5)CC4)cc3OC)nc2N1C(C)C [Volasertib] | 0.35 | 6.54 | > 10 | 6.23 | 1.09 | > 10 | > 10 | > 10 | – | – | –
O=C1NC(=O)C(c2cnc3ccccn23)=C1c1cn2c3c(cc(F)cc13)CN(C(=O)N1CCCCC1)CC2 | > 10 | > 10 | 0.2 | 1.52 | > 10 | > 10 | > 10 | > 10 | – | – | –
Cc1ccc(S(=O)(=O)/C=C/C#N)cc1 [BAY-11-7082] | > 10 | > 10 | > 10 | > 10 | 0.49 | 0.77 | 1.93 | > 10 | – | – | –
CC[C@H](C)n1cc(C)c2c(C(=O)NCc3c(C)cc(C)[nH]c3=O)cc(-c3ccc(N4CCNCC4)nc3)cc21 [GSK126] | > 10 | > 10 | 0.44 | > 10 | > 10 | > 10 | > 10 | > 10 | – | – | –
Cc1nnc(C(C)C)n1C1C[C@H]2CC[C@@H](C1)N2CC[C@H](NC(=O)C1CCC(F)(F)CC1)c1ccccc1 (stereo in doubt) [Maraviroc] | > 10 | > 10 | > 10 | > 10 | > 10 | > 10 | > 10 | > 10 | – | – | –
CC(C)n1c(/C=C/C(O)CC(O)CC(=O)O)c(-c2ccc(F)cc2)c2ccccc21 (stereo not given) [Fluvastatin] | 1.48 | 0.08 | 8.73 | 2.5 | 0.1 | 1.32 | 4.28 | 1.32 | – | – | –
Cn1c(=O)n(-c2ccc(C(C)(C)C#N)cc2)c2c3cc(-c4cnc5ccccc5c4)ccc3ncc21 [BEZ235] | 0.14 | 0.43 | 0.37 | 0.02 | 0.08 | 0.2 | 0.26 | 1.36 | – | – | –
C=C[C@@]1(C)CC(=O)[C@]2(O)[C@@]3(C)[C@@H](O)CCC(C)(C)[C@@H]3[C@H](O)[C@H](OC(C)=O)[C@@]2(C)O1 [Forskolin] | > 10 | > 10 | > 10 | > 10 | > 10 | > 10 | > 10 | > 10 | – | – | –
C[C@@H](Oc1cc(-c2cnn(C3CCNCC3)c2)cnc1N)c1c(Cl)ccc(F)c1Cl [Crizotinib] | 0.94 | 1.31 | 0.41 | 4.37 | 0.53 | 4.62 | 1.8 | 5.94 | – | – | –
CC(C)n1nc(-c2ccc3oc(N)nc3c2)c2c(N)ncnc21 [INK 128] | > 10 | 0.14 | 0.02 | 0.01 | 0.03 | 0.1 | 0.06 | 0.26 | – | – | –
CNC(=O)CN1CCC(Oc2cc3c(Nc4cccc(Cl)c4F)ncnc3cc2OC)CC1 [AZD8931] | > 10 | > 10 | > 10 | 4.75 | > 10 | > 10 | > 10 | > 10 | – | – | –

Compound | IC50 cell viability (FU-EPS-1) [µM] | IC50 cell viability (PCB-495) [µM] | IC50 cell viability (SkMc) [µM] | IC50 cell viability (ESX) [µM] | IC50 cell viability (VA-ES-BJ) [µM] | IC50 cell viability (PCB-490-5) [µM] | IC50 cell viability (PCB-490-4) [µM] | IC50 cell viability (PCB-490-3) [µM] | IC50 cell viability (U23674) [µM] | IC50 cell viability (pcb-00197) [µM] | IC50 cell viability (s1-12) [µM]
Cc1ccc(Nc2nccc(N(C)c3ccc4c(C)n(C)nc4c3)n2)cc1S(N)(=O)=O [Pazopanib] | > 10 | > 10 | > 10 | > 10 | > 10 | > 10 | > 10 | > 10 | – | – | –
O=c1ncccn1[C@@H]1O[C@H](CO)[C@@H](O)[C@H]1O [Zebularine] | > 10 | > 10 | > 10 | > 10 | > 10 | > 10 | > 10 | > 10 | – | – | –
CO[C@@H]1[C@H](N(C)C(=O)c2ccccc2)C[C@H]2O[C@]1(C)n1c3ccccc3c3c4c(c5c6ccccc6n2c5c31)C(=O)NC4 [PKC412] | > 10 | 1.36 | > 10 | 6.4 | 1.8 | 1.73 | 1.25 | > 10 | – | – | –
CN[C@@H](C)C(=O)N[C@H](C(=O)N1CCC[C@H]1c1nc(C(=O)c2ccc(F)cc2)cs1)C1CCCCC1 [LCL161] | > 10 | > 10 | > 10 | 1.8 | 3.15 | > 10 | > 10 | > 10 | – | – | –
Cc1cc(-c2ncc(CC(=O)Nc3ccc(-c4cnccn4)cn3)cc2C)ccn1 [LGK974] | > 10 | > 10 | > 10 | > 10 | > 10 | > 10 | > 10 | > 10 | – | – | –
CN1CCC(CNc2ccc3ncc(-c4cccc(OC(F)(F)F)c4)n3n2)CC1 [SGI-1776] | 1.7 | 7.51 | 2.84 | 0.15 | 4.81 | 1.85 | 2.03 | 4.5 | – | – | –
CN(C)C(=N)NC(=N)N [Metformin HCL] | > 10 | > 10 | > 10 | > 10 | > 10 | > 10 | > 10 | > 10 | – | – | –
Cc1cn(-c2cc(NC(=O)c3ccc(C)c(Nc4nccc(-c5cccnc5)n4)c3)cc(C(F)(F)F)c2)cn1 [Nilotinib] | – | – | – | – | – | – | – | – | – | > 10 | > 10
CO[C@H]1C[C@@H]2CC[C@@H](C)[C@@](O)(O2)C(=O)C(=O)N2CCCC[C@H]2C(=O)O[C@H]([C@H](C)C[C@@H]2CC[C@@H](OC(=O)C(C)(CO)CO)[C@H](OC)C2)CC(=O)[C@H](C)/C=C(\C)[C@@H](O)[C@@H](OC)C(=O)[C@H](C)C[C@H](C)/C=C/C=C/C=C/1C [temsirolimus] | – | – | – | – | – | – | – | – | – | > 10 | > 10
CC(C)C[C@H](NC(=O)[C@H](Cc1ccccc1)NC(=O)c1cnccn1)B(O)O [bortezomib] | – | – | – | – | – | – | – | – | – | 4.83 | 4.69
CN(c1ncccc1CNc1nc(Nc2ccc3c(c2)CC(=O)N3)ncc1C(F)(F)F)S(C)(=O)=O | – | – | – | – | – | – | – | – | – | 4.56 | 1.42
C[C@@H](Oc1cc(-c2cnn(C3CCNCC3)c2)cnc1N)c1c(Cl)ccc(F)c1Cl [crizotinib] | – | – | – | – | – | – | – | – | – | 1.53 | 1.18
CN(C)c1ccccc1CN1CCCN(Cc2ccccc2N(C)C)C1c1ccncc1 [GANT61] | – | – | – | – | – | – | – | – | – | > 10 | > 10
N#CC[C@H](C1CCCC1)n1cc(-c2ncnc3[nH]ccc23)cn1 [ruxolitinib] | – | – | – | – | – | – | – | – | – | > 10 | 6.93
C[C@]1(c2nc3c(C(N)=O)cccc3[nH]2)CCCN1 [veliparib] | – | – | – | – | – | – | – | – | – | > 10 | > 10
CCCS(=O)(=O)Nc1ccc(F)c(C(=O)c2c[nH]c3ncc(-c4ccc(Cl)cc4)cc23)c1F [vemurafenib] | – | – | – | – | – | – | – | – | – | > 10 | > 10
NC1(c2ccc(-c3nc4ccn5c(=O)[nH]nc5c4cc3-c3ccccc3)cc2)CCC1 [MK-2206] | – | – | – | – | – | – | – | – | – | > 10 | 1.09
COc1nc(C)cnc1NS(=O)(=O)c1cccnc1-c1ccc(-c2nnco2)cc1 [zibotentan] | – | – | – | – | – | – | – | – | – | > 10 | > 10
CC1=C(/C=C/C(C)=C/C=C/C(C)=C/C(=O)Nc2ccc(O)cc2)C(C)(C)CCC1 [Fenretinide] | – | – | – | – | – | – | – | – | – | > 10 | 1.84
Cn1c(=O)n(-c2ccc(C(C)(C)C#N)cc2)c2c3cc(-c4cnc5ccccc5c4)ccc3ncc21 [BEZ 235] | – | – | – | – | – | – | – | – | – | 0.57 | 0.22
C=C1C[C@@H]2CC[C@@]34C[C@H]5O[C@H]6[C@@H](O3)[C@H]3O[C@H](CC[C@@H]3O[C@H]6[C@H]5O4)CC(=O)C[C@@H]3[C@@H](OC)[C@@H](C[C@H](O)CN)O[C@H]3C[C@H]3O[C@@H](CC[C@@H]1O2)C[C@@H](C)C3=C [Eribulin] | – | – | – | – | – | – | – | – | – | 0.01 | 1.31
Cn1cc(C2=C(c3cn(C4CCN(Cc5ccccn5)CC4)c4ccccc34)C(=O)NC2=O)c2ccccc21 [enzastaurin] | – | – | – | – | – | – | – | – | – | > 10 | > 10

Reference: the supplement of paper PMC6580486
